Assay results reported in patent US20130150376A1, “Novel Sultam Compounds” (PFIZER INC., priority 2010, published 2013).
Where a name gives a salt, the structure may show the parent alone. Read-outs that look alike come from different tables or passages of the source.

Molecular target: T1, BACE1 enzyme (soluble, truncated BACE enzyme, BACE1deltaTM96His) (Homo sapiens, UniProt P56817)
T1 construct: soluble, truncated BACE enzyme (BACE1deltaTM96His); His; made in house
Assay: BACE1 Fluorescent Polarization (FP) Assay
Type: biochemical
Conditions: geometric mean of 2-4 IC50 determinations unless footnoted (^2: 5-6 determinations; ^4: single determination)
Source text: BACE1 Fluorescent Polarization (FP) Assay
The fluorescently tagged synthetic substrate, Biotin-GLTNIKTEEISEISŶEVEFR-C[oregon green]KK-OH can be efficiently cleaved by the beta-secretase enzyme and is therefore useful to assay beta-secretase activity in the presence or absence of inhibitory compounds. The his tagged BACE1 enzyme was affinity purified material from conditioned media of CHO-K1 cells that had been transfected to express soluble, truncated BACE enzyme (BACE1deltaTM96His). Compounds were incubated in a ½ log dose response (from a top concentration of 100 μM) with BACE1 enzyme (0.1 nM final) and the biotinylated fluorescent peptide substrate (150 nM final) in assay buffer containing 100 mM sodium acetate, pH 4.5 (brought to pH with acetic acid), and 0.001% Tween-20. Total reaction volumes of 30 μL were carried out in 384-well black plates (Thermo Scientific 4318). Plates were covered and incubated for 3 hours at 37° C. The reactions were then stopped by addition of 30 μL of 1.5 μM Streptavidin (Pierce, 21125). After a 10 minute incubation at room temperature, plates were read on a PerkinElmer Envision for fluorescence polarization (Ex485 nm/Em530 nm). The activity of the beta-secretase enzyme is detected by changes in the fluorescence polarization (Δ mP) that occur when the substrate is cleaved by the enzyme.

[1] = 11-point curve, read-out: BACE activity, 11-point curve, IC50
[2] = 8-point curve, read-out: BACE activity, 8-point curve, IC50

T1 sequence (P56817 46-457): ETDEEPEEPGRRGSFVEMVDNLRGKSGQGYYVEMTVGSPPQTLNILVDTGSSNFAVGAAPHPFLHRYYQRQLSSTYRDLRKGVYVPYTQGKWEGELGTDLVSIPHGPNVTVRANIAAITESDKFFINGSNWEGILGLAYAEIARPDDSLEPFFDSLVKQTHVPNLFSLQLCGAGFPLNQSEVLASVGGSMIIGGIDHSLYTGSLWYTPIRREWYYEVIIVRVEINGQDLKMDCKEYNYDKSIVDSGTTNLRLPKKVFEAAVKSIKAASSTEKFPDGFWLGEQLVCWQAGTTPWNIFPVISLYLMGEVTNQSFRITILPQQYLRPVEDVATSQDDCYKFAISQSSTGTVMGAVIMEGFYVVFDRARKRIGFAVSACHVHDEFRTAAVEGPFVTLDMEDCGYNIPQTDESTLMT

SMILES | IC50 [1] | IC50 [2]
CC(C)Cc1ncoc1CN1CC[C@]2(CC(C)S(=O)(=O)N2c2cccc(F)c2)C[C@@H]1C (mixture of isomers) [Example 2, (5R,7S)-1-(3-Fluorophenyl)-8-[(4-isobutyl-1,3-oxazol-5-yl)methyl]-3,7-dimethyl-2-thia-1,8-diazaspiro[4.5]decane 2,2-dioxide, formate salt] | 4.44 µM | 
C[C@H]1C[C@]2(CCN1Cc1ccc(O)c(C3CCCO3)c1)CCS(=O)(=O)N2c1cccc(F)c1 (mixture of isomers) [Example 61, 4-{[(5R,7S)-1-(3-fluorophenyl)-7-methyl-2,2-dioxido-2-thia-1,8-diazaspiro[4.5]dec-8-yl]methyl}-2-(tetrahydrofuran-2-yl)phenol] |  | < 0.0305 µM
C[C@H]1C[C@]2(CCN1Cc1ccc(O)c(C3CCCO3)c1)CCS(=O)(=O)N2c1cccc(F)c1 (single isomer, unassigned) [Example 46] | 3.01 µM | 0.866 µM
C[C@H]1C[C@]2(CCN1Cc1ccc(O)c(C3CCCO3)c1)CCS(=O)(=O)N2c1cccc(F)c1 (single isomer, unassigned) [Example 47] | 0.249 µM | 0.0471 µM
CC(C)Oc1cc(CN2CC[C@]3(CCS(=O)(=O)N3c3cccc(F)c3)C[C@@H]2C)ccc1O [Example 1, 4-{[(5R,7S)-1-(3-Fluorophenyl)-7-methyl-2,2-dioxido-2-thia-1,8-diazaspiro[4.5]dec-8-yl]methyl}-2-isopropoxyphenol] |  | 0.035 µM
CC(C)Oc1cc(CN2CC[C@]3(CCS(=O)(=O)N3c3cccc(F)c3)C[C@@H]2C)ncc1O [Example 3, 6-{[(5R,7S)-1-(3-Fluorophenyl)-7-methyl-2,2-dioxido-2-thia-1,8-diazaspiro[4.5]dec-8-yl]methyl}-4-isopropoxypyridin-3-ol] | 0.613 µM | 0.0815 µM
Cc1ccsc1-c1cc(CN2CC[C@]3(C=CS(=O)(=O)N3c3cccc(F)c3)C[C@@H]2C)ccc1O [Example 5, 4-{[(5R,7S)-1-(3-fluorophenyl)-7-methyl-2,2-dioxido-2-thia-1,8-diazaspiro[4.5]dec-3-en-8-yl]methyl}-2-(3-methyl-2-thienyl)phenol, hydrochloride salt] |  | 0.000731 µM
CCc1ccccc1-c1cc(CN2CC[C@]3(C=CS(=O)(=O)N3c3cccc(F)c3)C[C@@H]2C)ccc1O [Example 6, 2′-ethyl-5-{[(5R,7S)-1-(3-fluorophenyl)-7-methyl-2,2-dioxido-2-thia-1,8-diazaspiro[4.5]dec-3-en-8-yl]methyl}biphenyl-2-ol] |  | < 0.0042 µM
C[C@H]1C[C@@]2(C=CS(=O)(=O)N2c2cccc(F)c2)CCN1Cc1ccc(O)c(C2CCCC2)c1 [Example 7, 2-cyclopentyl-4-{[(5R,7S)-1-(3-fluorophenyl)-7-methyl-2,2-dioxido-2-thia-1,8-diazaspiro[4.5]dec-3-en-8-yl]methyl}phenol] |  | 0.0219 µM
CCc1ccccc1-c1cc(CN2CC[C@]3(CCS(=O)(=O)N3c3cccc(F)c3)C[C@@H]2C)ccc1O [Example 8, 2′-ethyl-5-{[(5R,7S)-1-(3-fluorophenyl)-7-methyl-2,2-dioxido-2-thia-1,8-diazaspiro[4.5]dec-8-yl]methyl}biphenyl-2-ol] |  | 0.124 µM
CC(C)Oc1cc(CN2CC[C@]3(C=CS(=O)(=O)N3c3cccc(F)c3)C[C@@H]2C)ccc1O [Example 9, 4-{[(5R,7S)-1-(3-ftuorophenyl)-7-methyl-2,2-dioxido-2-thia-1,8-diazaspiro[4.5]dec-3-en-8-yl]methyl}-2-isopropoxyphenol] | 0.0779 µM | 0.0235 µM
C[C@H]1C[C@@]2(C=CS(=O)(=O)N2c2cccc(F)c2)CCN1Cc1ccc(O)c(OC(F)(F)F)c1 [Example 10, 4-{[(5R,7S)-1-(3-fluorophenyl)-7-methyl-2,2-dioxido-2-thia-1,8-diazaspiro[4.5]dec-3-en-8-yl]methyl}-2-(trifluoromethoxy)phenol, hydrochloride salt] |  | 0.181 µM
C[C@H]1C[C@@]2(C=CS(=O)(=O)N2c2cccc(F)c2)CCN1Cc1ccc(O)c(OC2CC2)c1 [Example 13, 2-(cyclopropyloxy)-4-{[(5R,7S)-1-(3-fluorophenyl)-7-methyl-2,2-dioxido-2-thia-1,8-diazaspiro[4.5]dec-3-en-8-yl]methyl}phenol, hydrochloride salt] |  | 0.0184 µM
C[C@H]1C[C@@]2(C=CS(=O)(=O)N2c2cccc(F)c2)CCN1Cc1ccc(O)c(C(F)(F)F)c1 [Example 16, 4-{[(5R,7S)-1-(3-fluorophenyl)-7-methyl-2,2-dioxido-2-thia-1,8-diazaspiro[4.5]dec-3-en-8-yl]methyl}-2-(trifluoromethyl)phenol, hydrochloride salt] |  | 0.322 µM
CC(C)Oc1cccc(CN2CC[C@]3(C=CS(=O)(=O)N3c3cccc(F)c3)C[C@@H]2C)c1 [Example 17, (5R,7S)-1-(3-fluorophenyl)-8-(3-isopropoxybenzyl)-7-methyl-2-thia-1,8-diazaspiro[4.5]dec-3-ene 2,2-dioxide] | 0.908 µM | 0.0849 µM
C[C@H]1C[C@@]2(C=CS(=O)(=O)N2c2cccc(F)c2)CCN1Cc1ccc(O)c(F)c1 [Example 18, 2-fluoro-4-{[(5R,7S)-1-(3-fluorophenyl)-7-methyl-2,2-dioxido-2-thia-1,8-diazaspiro[4.5]dec-3-en-8-yl]methyl}phenol, hydrochloride salt] |  | 0.00186 µM

Continued, values first:

IC50 [1] | IC50 [2] | SMILES
 | 0.0533 µM | C[C@H]1C[C@@]2(C=CS(=O)(=O)N2c2cccc(F)c2)CCN1Cc1ccc(O)c(C2CCCO2)c1 (mixture of isomers) [Example 11, 4-{[(5R,7S)-1-(3-fluorophenyl)-7-methyl-2,2-dioxido-2-thia-1,8-diazaspiro[4.5]dec-3-en-8-yl]methyl}-2-(tetrahydrofuran-2-yl)phenol]
6.46 µM |  | C[C@H]1C[C@]2(CCN1Cc1ncoc1C1CCCO1)CCS(=O)(=O)N2c1cccc(F)c1 (mixture of isomers) [Example 80, (5R,7S)-1-(3-fluorophenyl)-7-methyl-8-{[5-(tetrahydrofuran-2-yl)-1,3-oxazol-4-yl]methyl}-2-thia-1,8-diazaspiro[4.5]decane 2,2-dioxide]
7.07 µM |  | C[C@H]1CCO[C@H]1c1ocnc1CN1CC[C@]2(C=CS(=O)(=O)N2c2cccc(F)c2)C[C@@H]1C (relative stereo) [Example 69, (5R,7S)-1-(3-fluorophenyl)-7-methy1-8-({5-[cis-3-methyltetrahydrofuran-2-yl]-1,3-oxazol-4-yl}methyl)-2-thia-1,8-diazaspiro[4.5]dec-3-ene 2,2-dioxide]
 | 0.208 µM | C[C@H]1C[C@@]2(C=CS(=O)(=O)N2c2cccc(F)c2)CCN1Cc1ccc(O)c(C2CCCO2)c1 (single isomer, unassigned) [Example 30]
0.0626 µM | 0.0105 µM | C[C@H]1C[C@@]2(C=CS(=O)(=O)N2c2cccc(F)c2)CCN1Cc1ccc(O)c(C2CCCO2)c1 (single isomer, unassigned) [Example 31]
 | 0.338 µM | CC(C)Cc1ocnc1CN1CC[C@]2(C=CS(=O)(=O)N2c2cccc(F)c2)C[C@@H]1C [Example 12, (5R,7S)-1-(3-fluorophenyl)-8-[(5-isobutyl-1,3-oxazol-4-yl)methyl]-7-methyl-2-thia-1,8-diazaspiro[4.5]dec-3-ene 2,2-dioxide]
 | 0.0425 µM | C[C@H]1C[C@@]2(C=CS(=O)(=O)N2c2cccc(F)c2)CCN1Cc1ccc(O)c(OC2CC2)c1 [Example 14, 2-(cyclopropyloxy)-4-{[(5R,7S)-1-(3-fluorophenyl)-7-methyl-2,2-dioxido-2-thia-1,8-diazaspiro[4.5]dec-3-en-8-yl]methyl}phenol]
0.478 µM | 0.754 µM | C[C@H]1C[C@@]2(C=CS(=O)(=O)N2c2cccc(F)c2)CCN1Cc1ccc(O)c(Cl)c1 [Example 15, 2-chloro-4-{[(5R,7S)-1-(3-fluorophenyl}-7-methyl-2,2-dioxido-2-thia-1,8-diazaspiro[4.5]dec-3-en-8-yl]methyl}phenol, hydrochloride salt]
 | 0.31 µM | C[C@H]1C[C@@]2(C=CS(=O)(=O)N2c2cccc(F)c2)CCN1Cc1scnc1CC1CCC1 [Example 19, (5R,7S)-8-{[4-(cyclobutylmethyl)-1,3-thiazol-5-yl]methyl}-1-(3-fluorophenyl)-7-methyl-2-thia-1,8-diazaspiro[4.5]dec-3-ene 2,2-dioxide]
 | 0.414 µM | C[C@H]1C[C@@]2(C=CS(=O)(=O)N2c2cccc(F)c2)CCN1Cc1ncoc1-c1cccnc1 [Example 22, (5R,7S)-1-(3-fluorophenyl)-7-methyl-8-[(5-pyridin-3-yl-1,3-oxazol-4-yl)methyl]-2-thia-1,8-diazaspiro[4.5]dec-3-ene 2,2-dioxide, hydrochloride salt]
1.45 µM | 0.428 µM | C[C@H]1C[C@@]2(C=CS(=O)(=O)N2c2cccc(F)c2)CCN1Cc1ncoc1-c1cncnc1 [Example 23, (5R,7S)-1-(3-fluorophenyl)-7-methyl-8-[(5-pyrimidin-5-yl-1,3-oxazol-4-yl)methyl]-2-thia-1,8-diazaspiro[4.5]dec-3-ene 2,2-dioxide, hydrochloride salt]
